Patent US4659696A, “Pharmaceutical composition and its nasal or vaginal use” (Takeda Chemical Industries, Ltd., priority 1982, dated 1987)

Tests used:
Type in all cases: in vivo, rat
plasma glucose level [1] = test: Plasma glucose level after rectal administration of insulin solution to rats; conditions: insulin 50 IU/kg, before administration=100
plasma glucose level [2] = test: Plasma glucose level after rectal insulin suppository in rats; conditions: rectal Witepsol W-35 suppository, insulin 50 IU/kg, before administration=100
From the text: The results, which are shown in Table 11, indicate that the addition of α- or β-cyclodextrin results in an increased absorption of insulin.

plasma glucose level [3] = test: Plasma glucose level after nasal administration of insulin to rats; conditions: before administration=100
Method: Male SD strain rats (body weights 250 g, approx.) fasted for 16 hours are used in groups of at least 3 animals. Each animal is anesthetized with pentobarbital and administered nasal medication in accordance with the method described in International Journal of Pharmaceutics 7, 317 (1981). Then, 0.1 ml/kg of insulin solution is directly administered into the nasal cavity with a micropipette via the nostril.
The insulin solution used is a mixed solution of 10 U or 20 U of porcine insulin (about 0.2 mg or […]) and 0 mg to 10 mg [which correspond to 0 to 10%] of α-, β- or γ-cyclodextrin in 0.1 ml of an isotonic buffer solution (pH 7.4).
As control, insulin is intravenously administered and plasma glucose levels are determined in the manner as above.

plasma glucose level [4] = test: Plasma glucose level after vaginal administration of insulin to rats; conditions: for Plasma glucose level (%): just before administration=100; for reduction in the area under the plasma glucose level-time curve within 6 hours after administration: mean±standard error

insulin: porcine insulin
Change (%) in plasma glucose level (plasma glucose level [1]; 5% (w/v) α-cyclodextrin, 0.5 hr.): 92.9% | Change (%) in plasma glucose level (plasma glucose level [1]; 5% (w/v) α-cyclodextrin, 1 hr.): 39.1% | Change (%) in plasma glucose level (plasma glucose level [1]; 5% (w/v) α-cyclodextrin, 1.5 hr.): 39.6% | Change (%) in plasma glucose level (plasma glucose level [1]; 5% (w/v) α-cyclodextrin, 2 hr.): 69.6% | Change (%) in plasma glucose level (plasma glucose level [1]; 5% (w/v) β-cyclodextrin, 0.5 hr.): 94.3% | Change (%) in plasma glucose level (plasma glucose level [1]; 5% (w/v) β-cyclodextrin, 1 hr.): 70.1% | Change (%) in plasma glucose level (plasma glucose level [1]; 5% (w/v) β-cyclodextrin, 1.5 hr.): 76.3% | Change (%) in plasma glucose level (plasma glucose level [1]; 5% (w/v) β-cyclodextrin, 2 hr.): 90.1% | Change (%) in plasma glucose level (plasma glucose level [1]; 5% (w/v) γ-cyclodextrin, 0.5 hr.): 94.8% | Change (%) in plasma glucose level (plasma glucose level [1]; 5% (w/v) γ-cyclodextrin, 1 hr.): 79.0% | Change (%) in plasma glucose level (plasma glucose level [1]; 5% (w/v) γ-cyclodextrin, 1.5 hr.): 81.3% | Change (%) in plasma glucose level (plasma glucose level [1]; 5% (w/v) γ-cyclodextrin, 2 hr.): 93.0% | Change (%) in plasma glucose level (plasma glucose level [1]; no cyclodextrin, 0.5 hr.): 102.2% | Change (%) in plasma glucose level (plasma glucose level [1]; no cyclodextrin, 1 hr.): 86.0% | Change (%) in plasma glucose level (plasma glucose level [1]; no cyclodextrin, 1.5 hr.): 95.2% | Change (%) in plasma glucose level (plasma glucose level [1]; no cyclodextrin, 2 hr.): 121.9% | Change (%) in plasma glucose level (plasma glucose level [2]; 5% (w/w) α-cyclodextrin, 0.5 hr.): 93.1% | Change (%) in plasma glucose level (plasma glucose level [2]; 5% (w/w) α-cyclodextrin, 1 hr.): 61.1% | Change (%) in plasma glucose level (plasma glucose level [2]; 5% (w/w) α-cyclodextrin, 1.5 hr.): 63.5% | Change (%) in plasma glucose level (plasma glucose level [2]; 5% (w/w) α-cyclodextrin, 2 hr.): 86.1% | Change (%) in plasma glucose level (plasma glucose level [2]; 5% (w/w) α-cyclodextrin, 3 hr.): 93.4% | Change (%) in plasma glucose level (plasma glucose level [2]; 5% (w/w) β-cyclodextrin, 0.5 hr.): 87.1% | Change (%) in plasma glucose level (plasma glucose level [2]; 5% (w/w) β-cyclodextrin, 1 hr.): 81.5% | Change (%) in plasma glucose level (plasma glucose level [2]; 5% (w/w) β-cyclodextrin, 1.5 hr.): 80.1% | Change (%) in plasma glucose level (plasma glucose level [2]; 5% (w/w) β-cyclodextrin, 2 hr.): 92.5% | Change (%) in plasma glucose level (plasma glucose level [2]; 5% (w/w) β-cyclodextrin, 3 hr.): 100.4% | Change (%) in plasma glucose level (plasma glucose level [2]; no cyclodextrin, 0.5 hr.): 98.1% | Change (%) in plasma glucose level (plasma glucose level [2]; no cyclodextrin, 1 hr.): 94.1% | Change (%) in plasma glucose level (plasma glucose level [2]; no cyclodextrin, 1.5 hr.): 97.4% | Change (%) in plasma glucose level (plasma glucose level [2]; no cyclodextrin, 2 hr.): 98.1% | Change (%) in plasma glucose level (plasma glucose level [2]; no cyclodextrin, 3 hr.): 102.5% | Change (%) in plasma glucose level (plasma glucose level [3]; intranasal, insulin 10 U/Kg, no cyclodextrin, 1 hr.): 93.7% | Change (%) in plasma glucose level (plasma glucose level [3]; intranasal, insulin 10 U/Kg, no cyclodextrin, 2 hr.): 99.3% | Change (%) in plasma glucose level (plasma glucose level [3]; intranasal, insulin 10 U/Kg, no cyclodextrin, 4 hr.): 103.0% | Change (%) in plasma glucose level (plasma glucose level [3]; intranasal, insulin 10 U/Kg, α-cyclodextrin 3%, 1 hr.): 73.5% | Change (%) in plasma glucose level (plasma glucose level [3]; intranasal, insulin 10 U/Kg, α-cyclodextrin 3%, 2 hr.): 59.7% | Change (%) in plasma glucose level (plasma glucose level [3]; intranasal, insulin 10 U/Kg, α-cyclodextrin 3%, 4 hr.): 62.9% | Change (%) in plasma glucose level (plasma glucose level [3]; intranasal, insulin 10 U/Kg, α-cyclodextrin 5%, 1 hr.): 59.4% | Change (%) in plasma glucose level (plasma glucose level [3]; intranasal, insulin 10 U/Kg, α-cyclodextrin 5%, 2 hr.): 46.8% | Change (%) in plasma glucose level (plasma glucose level [3]; intranasal, insulin 10 U/Kg, α-cyclodextrin 5%, 4 hr.): 54.4% | Change (%) in plasma glucose level (plasma glucose level [3]; intranasal, insulin 10 U/Kg, α-cyclodextrin 10%, 1 hr.): 33.8% | Change (%) in plasma glucose level (plasma glucose level [3]; intranasal, insulin 10 U/Kg, α-cyclodextrin 10%, 2 hr.): 24.8% | Change (%) in plasma glucose level (plasma glucose level [3]; intranasal, insulin 10 U/Kg, α-cyclodextrin 10%, 4 hr.): 40.3% | Change (%) in plasma glucose level (plasma glucose level [3]; intranasal, insulin 10 U/Kg, β-cyclodextrin 10% (suspension), 1 hr.): 62.5% | Change (%) in plasma glucose level (plasma glucose level [3]; intranasal, insulin 10 U/Kg, β-cyclodextrin 10% (suspension), 2 hr.): 48.6% | Change (%) in plasma glucose level (plasma glucose level [3]; intranasal, insulin 10 U/Kg, β-cyclodextrin 10% (suspension), 4 hr.): 49.7% | Change (%) in plasma glucose level (plasma glucose level [3]; intranasal, insulin 10 U/Kg, γ-cyclodextrin 10%, 1 hr.): 80.0% | Change (%) in plasma glucose level (plasma glucose level [3]; intranasal, insulin 10 U/Kg, γ-cyclodextrin 10%, 2 hr.): 81.0% | Change (%) in plasma glucose level (plasma glucose level [3]; intranasal, insulin 10 U/Kg, γ-cyclodextrin 10%, 4 hr.): 74.2% | Change (%) in plasma glucose level (plasma glucose level [3]; intranasal, insulin 20 U/Kg, no cyclodextrin, 1 hr.): 92.4% | Change (%) in plasma glucose level (plasma glucose level [3]; intranasal, insulin 20 U/Kg, no cyclodextrin, 2 hr.): 90.6% | Change (%) in plasma glucose level (plasma glucose level [3]; intranasal, insulin 20 U/Kg, no cyclodextrin, 4 hr.): 99.9% | Change (%) in plasma glucose level (plasma glucose level [3]; intranasal, insulin 20 U/Kg, α-cyclodextrin 5%, 1 hr.): 64.3% | Change (%) in plasma glucose level (plasma glucose level [3]; intranasal, insulin 20 U/Kg, α-cyclodextrin 5%, 2 hr.): 38.4% | Change (%) in plasma glucose level (plasma glucose level [3]; intranasal, insulin 20 U/Kg, α-cyclodextrin 5%, 4 hr.): 47.9% | Change (%) in plasma glucose level (plasma glucose level [3]; intravenous, insulin 5 U/Kg, no cyclodextrin, 1 hr.): 29.6% | Change (%) in plasma glucose level (plasma glucose level [3]; intravenous, insulin 5 U/Kg, no cyclodextrin, 2 hr.): 31.6% | Change (%) in plasma glucose level (plasma glucose level [3]; intravenous, insulin 5 U/Kg, no cyclodextrin, 4 hr.): 41.7% | Plasma glucose level (%) (plasma glucose level [4]; intravaginal (5% α-CD), insulin 20 Unit/kg, 0.5 hour): 66.5% | Plasma glucose level (%) (plasma glucose level [4]; intravaginal (5% α-CD), insulin 20 Unit/kg, 1 hour): 52.7% | Plasma glucose level (%) (plasma glucose level [4]; intravaginal (5% α-CD), insulin 20 Unit/kg, 2 hour): 40.0% | Plasma glucose level (%) (plasma glucose level [4]; intravaginal (5% α-CD), insulin 20 Unit/kg, 3 hour): 33.7% | Plasma glucose level (%) (plasma glucose level [4]; intravaginal (5% α-CD), insulin 20 Unit/kg, 4 hour): 31.4% | Plasma glucose level (%) (plasma glucose level [4]; intravaginal (5% α-CD), insulin 20 Unit/kg, 6 hour): 41.5% | Plasma glucose level (%) (plasma glucose level [4]; intravaginal (physiological saline), insulin 20 Unit/kg, no cyclodextrin, 0.5 hour): 80.7% | Plasma glucose level (%) (plasma glucose level [4]; intravaginal (physiological saline), insulin 20 Unit/kg, no cyclodextrin, 1 hour): 75.8% | Plasma glucose level (%) (plasma glucose level [4]; intravaginal (physiological saline), insulin 20 Unit/kg, no cyclodextrin, 2 hour): 77.2% | Plasma glucose level (%) (plasma glucose level [4]; intravaginal (physiological saline), insulin 20 Unit/kg, no cyclodextrin, 3 hour): 74.2% | Plasma glucose level (%) (plasma glucose level [4]; intravaginal (physiological saline), insulin 20 Unit/kg, no cyclodextrin, 4 hour): 66.9% | Plasma glucose level (%) (plasma glucose level [4]; intravaginal (physiological saline), insulin 20 Unit/kg, no cyclodextrin, 6 hour): 67.8% | pharmacological effect versus control vaginal administration group (plasma glucose level [4]; intravaginal, insulin 20 units/kg, 5% α-cyclodextrin): almost doubled | reduction in the area under the plasma glucose level-time curve within 6 hours after administration (plasma glucose level [4]; intravaginal, insulin 20 units/kg, 5% α-cyclodextrin (invention group)): 339.9±11.2 %×hour | reduction in the area under the plasma glucose level-time curve within 6 hours after administration (plasma glucose level [4]; intravaginal, insulin 20 units/kg, no cyclodextrin (control group)): 158.2±29.6 %×hour | Plasma glucose level (%) (plasma glucose level [4]; subcutaneous, insulin 5 Unit/kg, no cyclodextrin, 0.5 hour): 67.0% | Plasma glucose level (%) (plasma glucose level [4]; subcutaneous, insulin 5 Unit/kg, no cyclodextrin, 1 hour): 54.7% | Plasma glucose level (%) (plasma glucose level [4]; subcutaneous, insulin 5 Unit/kg, no cyclodextrin, 2 hour): 42.2% | Plasma glucose level (%) (plasma glucose level [4]; subcutaneous, insulin 5 Unit/kg, no cyclodextrin, 3 hour): 35.1% | Plasma glucose level (%) (plasma glucose level [4]; subcutaneous, insulin 5 Unit/kg, no cyclodextrin, 4 hour): 37.5% | Plasma glucose level (%) (plasma glucose level [4]; subcutaneous, insulin 5 Unit/kg, no cyclodextrin, 6 hour): 74.1%
